Results taken from US20250255867A1 (Kadmon Corporation, LLC, priority 2022, published 2025).

Conditions: Cohort 3 400 mg QD
Method: All responses were assessed by the investigators.
Reported Adverse Events. […] All-cause mortality data collected during the study were assessed for all enrolled participants. Disease progression related death was not reported as AE.
Number of Participants With Treatment-emergent Adverse Events (TEAEs), and Treatment-emergent Serious Adverse Events (TESAEs). […] TEAEs included both SAEs and non-SAEs. […] Analysis was performed on safety population which included all participants who received at least 1 dose of study medication.

CC(C)NC(=O)COc1cccc(-c2nc(Nc3ccc4[nH]ncc4c3)c3ccccc3n2)c1 [Belumosudil, 2-{3-[4-(1H-indazol-5-ylamino)-2-quinazolinyl]phenoxy}-N-(propan-2-yl) acetamide]
(4.76%): Glucose urine present: Affected/At Risk (%) | Haematuria: Affected/At Risk (%) | Hordeolum: Affected/At Risk (%) | Hyperhidrosis: Affected/At Risk (%) | Hyperthyroidism: Affected/At Risk (%) | Hypoaesthesia: Affected/At Risk (%) | Hypocalcaemia: Affected/At Risk (%) | Hypomagnesaemia: Affected/At Risk (%) | Hypophosphataemia: Affected/At Risk (%) | Joint range of motion decreased: Affected/At Risk (%) | Leukocytosis: Affected/At Risk (%) | Limb injury: Affected/At Risk (%) | Muscle spasticity: Affected/At Risk (%) | Musculoskeletal chest pain: Affected/At Risk (%)
3/21: Hyperglycemia: Affected/At Risk | Hyperkalaemia: Affected/At Risk | Hyperuricaemia: Affected/At Risk | Hypothyroidism: Affected/At Risk | Hypoxia: Affected/At Risk | Insomnia: Affected/At Risk | Myalgia: Affected/At Risk
6/21: Headache: Affected/At Risk | Muscle spasms: Affected/At Risk
(0%): Glaucoma: Affected/At Risk (%) | Graft versus host disease in gastrointestinal tract: Affected/At Risk (%) | Gynaecomastia: Affected/At Risk (%) | Hair growth abnormal: Affected/At Risk (%) | Hodgkin's disease recurrent: Affected/At Risk (%) | Hot flush: Affected/At Risk (%) | Hypertriglyceridaemia: Affected/At Risk (%) | Hypogonadism: Affected/At Risk (%) | Hypokalaemia: Affected/At Risk (%) | Hypothermia: Affected/At Risk (%) | Impaired healing: Affected/At Risk (%) | Influenza like illness: Affected/At Risk (%) | Irritability: Affected/At Risk (%) | Lacrimation increased: Affected/At Risk (%) | Leukaemia recurrent: Affected/At Risk (%) | Ligament sprain: Affected/At Risk (%) | Macular degeneration: Affected/At Risk (%) | Migraine: Affected/At Risk (%) | Nail disorder: Affected/At Risk (%)
(14.29%): Hyperglycemia: Affected/At Risk (%) | Hyperkalaemia: Affected/At Risk (%) | Hyperuricaemia: Affected/At Risk (%) | Hypothyroidism: Affected/At Risk (%) | Hypoxia: Affected/At Risk (%) | Insomnia: Affected/At Risk (%) | Myalgia: Affected/At Risk (%)
0/21: Graft versus host disease in gastrointestinal tract: Affected/At Risk | Gynaecomastia: Affected/At Risk | Hair growth abnormal: Affected/At Risk | Hodgkin's disease recurrent: Affected/At Risk | Hot flush: Affected/At Risk | Hypertriglyceridaemia: Affected/At Risk | Hypogonadism: Affected/At Risk | Hypokalaemia: Affected/At Risk | Hypothermia: Affected/At Risk | Impaired healing: Affected/At Risk | Influenza like illness: Affected/At Risk | Irritability: Affected/At Risk | Lacrimation increased: Affected/At Risk | Leukaemia recurrent: Affected/At Risk | Ligament sprain: Affected/At Risk | Macular degeneration: Affected/At Risk | Migraine: Affected/At Risk | Nail disorder: Affected/At Risk
2/21: Hyponatraemia: Affected/At Risk | Influenza: Affected/At Risk | Muscular weakness: Affected/At Risk
6: Hypertension: # Events | Muscle spasms: # Events
(28.57%): Headache: Affected/At Risk (%) | Muscle spasms: Affected/At Risk (%)
1: Hordeolum: # Events | Hyperhidrosis: # Events | Hyperthyroidism: # Events | Hypoaesthesia: # Events | Hypocalcaemia: # Events | Hypomagnesaemia: # Events | Hypophosphataemia: # Events | Joint range of motion decreased: # Events | Leukocytosis: # Events | Limb injury: # Events | Muscle spasticity: # Events | Musculoskeletal chest pain: # Events | Nasal congestion: # Events
4: Hyperkalaemia: # Events | Hypothyroidism: # Events
0: Graft versus host disease in gastrointestinal tract: # Events | Gynaecomastia: # Events | Hair growth abnormal: # Events | Hodgkin's disease recurrent: # Events | Hot flush: # Events | Hypertriglyceridaemia: # Events | Hypogonadism: # Events | Hypokalaemia: # Events | Hypothermia: # Events | Impaired healing: # Events | Influenza like illness: # Events | Irritability: # Events | Lacrimation increased: # Events | Leukaemia recurrent: # Events | Ligament sprain: # Events | Macular degeneration: # Events | Migraine: # Events | Nail disorder: # Events
(9.52%): Hyponatraemia: Affected/At Risk (%) | Influenza: Affected/At Risk (%) | Muscular weakness: Affected/At Risk (%)
2: Haematuria: # Events | Hyponatraemia: # Events | Influenza: # Events | Muscular weakness: # Events
3: Glucose urine present: # Events | Hypoxia: # Events | Insomnia: # Events | Myalgia: # Events
4/21: Hypertension: Affected/At Risk
8: Headache: # Events | Hyperglycemia: # Events
1/21: Glucose urine present: Affected/At Risk | Haematuria: Affected/At Risk | Hordeolum: Affected/At Risk | Hyperhidrosis: Affected/At Risk | Hyperthyroidism: Affected/At Risk | Hypoaesthesia: Affected/At Risk | Hypocalcaemia: Affected/At Risk | Hypomagnesaemia: Affected/At Risk | Hypophosphataemia: Affected/At Risk | Joint range of motion decreased: Affected/At Risk | Leukocytosis: Affected/At Risk | Limb injury: Affected/At Risk | Muscle spasticity: Affected/At Risk | Musculoskeletal chest pain: Affected/At Risk
5: Hyperuricaemia: # Events
(19.05%): Hypertension: Affected/At Risk (%)
